How the values were obtained:
Assay in all cases: relative viability (nuclei count vs DMSO), 5 days (fraction); higher = more cells survive
PC-14 = system: PC-14
In short: (§1)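 Lung cancer cell lines in 1536-well plates got either a single drug or a fixed anchor-drug dose together with five library-drug doses (not always all listed) in √10 steps, by pin tool, on the day after seeding. Nuclei were counted after 5 days, and relative viability is the treated-to-vehicle ratio of nuclei counts. Values are medians of duplicate plates.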

NCI-H441 = system: NCI-H441
In short: as §1

LU99A = system: LU99A
In short: as §1

COR-L23 = system: COR-L23
In short: as §1

HCC-366 = system: HCC-366
In short: as §1

NCI-H1437 = system: NCI-H1437
In short: as §1

NCI-H2009 = system: NCI-H2009
In short: as §1

COR-L 105 = system: COR-L 105
In short: as §1

NCI-H1666 = system: NCI-H1666
In short: as §1

NCI-H1650 = system: NCI-H1650
In short: as §1

EKVX = system: EKVX
In short: as §1

BEN = system: BEN
In short: as §1

NCI-H727 = system: NCI-H727
In short: as §1

LK-2 = system: LK-2
In short: as §1

HARA = system: HARA
In short: as §1

NCI-H2023 = system: NCI-H2023
In short: as §1

201T = system: 201T
In short: as §1

NCI-H838 = system: NCI-H838
In short: as §1

NCI-H3122 = system: NCI-H3122
In short: as §1

NCI-H2170 = system: NCI-H2170
In short: as §1

CAL-12T = system: CAL-12T
In short: as §1

With Clc1ccc(Nc2nnc(Cc3ccncc3)c3ccccc23)cc1 [Vatalanib] + CC1(C)CCC(c2ccc(Cl)cc2)=C(CN2CCN(c3ccc(C(=O)NS(=O)(=O)c4ccc(N[C@H](CCN5CCOCC5)CSc5ccccc5)c(S(=O)(=O)C(F)(F)F)c4)cc3)CC2)C1 [Navitoclax] (partner 0.5 µM) the relative viability (PC-14; first compound 0.04 µM) was 1.04, the relative viability (PC-14; first compound 0.1265 µM) was 0.941 and the relative viability (PC-14; first compound 0.4 µM) was 1.07. The relative viability (PC-14; first compound 1.265 µM) was 1.03, the relative viability (PC-14; first compound 4 µM) was 0.997 and the relative viability (NCI-H441; first compound 0.04 µM) was 0.886. The relative viability (NCI-H441; first compound 0.1265 µM) was 0.685, the relative viability (NCI-H441; first compound 0.4 µM) was 0.469 and the relative viability (NCI-H441; first compound 1.265 µM) was 0.755. The relative viability (NCI-H441; first compound 4 µM) was 0.54, the relative viability (LU99A; first compound 0.04 µM) was 0.763 and the relative viability (LU99A; first compound 0.1265 µM) was 0.719. For the same compound, the relative viability (LU99A; first compound 0.4 µM) was 1.11, the relative viability (LU99A; first compound 1.265 µM) was 0.855 and the relative viability (LU99A; first compound 4 µM) was 0.859. For the same compound, the relative viability (COR-L23; first compound 0.04 µM) was 1.1, the relative viability (COR-L23; first compound 0.1265 µM) was 0.972 and the relative viability (COR-L23; first compound 0.4 µM) was 1.24. For the same compound, the relative viability (COR-L23; first compound 1.265 µM) was 0.778, the relative viability (COR-L23; first compound 4 µM) was 1.01 and the relative viability (HCC-366; first compound 0.04 µM) was 1.09. It also gave a relative viability (HCC-366; first compound 0.1265 µM) of 0.816, a relative viability (HCC-366; first compound 0.4 µM) of 1.25 and a relative viability (HCC-366; first compound 1.265 µM) of 1.03. For the same compound, the relative viability (HCC-366; first compound 4 µM) was 0.991, the relative viability (NCI-H1437; first compound 0.04 µM) was 1.09 and the relative viability (NCI-H1437; first compound 0.1265 µM) was 1.09. For the same compound, the relative viability (NCI-H1437; first compound 0.4 µM) was 1.12, the relative viability (NCI-H1437; first compound 1.265 µM) was 1.13 and the relative viability (NCI-H1437; first compound 4 µM) was 1.15. It also gave a relative viability (NCI-H2009; first compound 0.04 µM) of 1.18, a relative viability (NCI-H2009; first compound 0.1265 µM) of 1.09 and a relative viability (NCI-H2009; first compound 0.4 µM) of 1.24. It also gave a relative viability (NCI-H2009; first compound 1.265 µM) of 1.12, a relative viability (NCI-H2009; first compound 4 µM) of 1.13 and a relative viability (COR-L 105; first compound 0.04 µM) of 1.47. It also gave a relative viability (COR-L 105; first compound 0.1265 µM) of 0.928, a relative viability (COR-L 105; first compound 0.4 µM) of 0.692 and a relative viability (COR-L 105; first compound 1.265 µM) of 0.766. It also gave a relative viability (COR-L 105; first compound 4 µM) of 0.715, a relative viability (NCI-H1666; first compound 0.04 µM) of 0.958 and a relative viability (NCI-H1666; first compound 0.1265 µM) of 0.93. It also gave a relative viability (NCI-H1666; first compound 0.4 µM) of 0.829, a relative viability (NCI-H1666; first compound 1.265 µM) of 0.963 and a relative viability (NCI-H1666; first compound 4 µM) of 0.845. It also gave a relative viability (NCI-H1650; first compound 0.04 µM) of 1.32, a relative viability (NCI-H1650; first compound 0.1265 µM) of 1.2 and a relative viability (NCI-H1650; first compound 0.4 µM) of 1.41. It also gave a relative viability (NCI-H1650; first compound 1.265 µM) of 0.951, a relative viability (NCI-H1650; first compound 4 µM) of 1.17 and a relative viability (EKVX; first compound 0.04 µM) of 0.924. It also gave a relative viability (EKVX; first compound 0.1265 µM) of 0.928, a relative viability (EKVX; first compound 0.4 µM) of 1 and a relative viability (EKVX; first compound 1.265 µM) of 0.839. For the same compound, the relative viability (EKVX; first compound 4 µM) was 0.891, the relative viability (BEN; first compound 0.04 µM) was 0.0773 and the relative viability (BEN; first compound 0.1265 µM) was 0.0662. It also gave a relative viability (BEN; first compound 0.4 µM) of 0.0617, a relative viability (BEN; first compound 1.265 µM) of 0.0622 and a relative viability (BEN; first compound 4 µM) of 0.0608. The relative viability (NCI-H727; first compound 0.04 µM) was 0.428, the relative viability (NCI-H727; first compound 0.1265 µM) was 0.403 and the relative viability (NCI-H727; first compound 0.4 µM) was 0.516. It also gave a relative viability (NCI-H727; first compound 1.265 µM) of 0.407, a relative viability (NCI-H727; first compound 4 µM) of 0.46 and a relative viability (LK-2; first compound 0.04 µM) of 0.883. For the same compound, the relative viability (LK-2; first compound 0.1265 µM) was 0.824, the relative viability (LK-2; first compound 1.265 µM) was 0.955 and the relative viability (LK-2; first compound 4 µM) was 0.807. It also gave a relative viability (HARA; first compound 0.04 µM) of 1.08, a relative viability (HARA; first compound 0.1265 µM) of 1.03 and a relative viability (HARA; first compound 0.4 µM) of 1.18. The relative viability (HARA; first compound 1.265 µM) was 1.11, the relative viability (HARA; first compound 4 µM) was 1.13 and the relative viability (NCI-H2023; first compound 0.04 µM) was 1. It also gave a relative viability (NCI-H2023; first compound 0.1265 µM) of 1.02, a relative viability (NCI-H2023; first compound 0.4 µM) of 1.08 and a relative viability (NCI-H2023; first compound 1.265 µM) of 0.892. It also gave a relative viability (NCI-H2023; first compound 4 µM) of 0.982, a relative viability (201T; first compound 0.04 µM) of 1.17 and a relative viability (201T; first compound 0.1265 µM) of 1.27. For the same compound, the relative viability (201T; first compound 0.4 µM) was 1.25, the relative viability (201T; first compound 1.265 µM) was 1.25 and the relative viability (201T; first compound 4 µM) was 1.21. It also gave a relative viability (NCI-H838; first compound 0.04 µM) of 1.08, a relative viability (NCI-H838; first compound 0.1265 µM) of 1.11 and a relative viability (NCI-H838; first compound 0.4 µM) of 1.19. For the same compound, the relative viability (NCI-H838; first compound 1.265 µM) was 1.07, the relative viability (NCI-H838; first compound 4 µM) was 1.18 and the relative viability (NCI-H3122; first compound 0.04 µM) was 1.03. It also gave a relative viability (NCI-H3122; first compound 0.1265 µM) of 1.02, a relative viability (NCI-H3122; first compound 0.4 µM) of 1 and a relative viability (NCI-H3122; first compound 1.265 µM) of 1.06. For the same compound, the relative viability (NCI-H3122; first compound 4 µM) was 1.02, the relative viability (NCI-H2170; first compound 0.04 µM) was 0.584 and the relative viability (NCI-H2170; first compound 0.1265 µM) was 0.674. It also gave a relative viability (NCI-H2170; first compound 0.4 µM) of 0.621, a relative viability (NCI-H2170; first compound 1.265 µM) of 0.51 and a relative viability (NCI-H2170; first compound 4 µM) of 0.589. The relative viability (CAL-12T; first compound 0.04 µM) was 1.17, the relative viability (CAL-12T; first compound 0.1265 µM) was 1.2 and the relative viability (CAL-12T; first compound 0.4 µM) was 1.28. The relative viability (CAL-12T; first compound 1.265 µM) was 1.15 and the relative viability (CAL-12T; first compound 4 µM) was 1.31.
